Laboratory results as given in patent publication US20160002174A1, “CXCR4 Antagonists for the Treatment of Medical Disorders” (Emory University, priority 2005, published 2016).
Entries after “also recorded” stand apart in the source; their conditions may differ.

Assays:
CXCR4 protein levels = CXCR4 protein levels in treated cells; assay type: cell-based, human
From the text: (§1) CXCR4/SDF-1 interaction activates PI3K/Akt and Ras/Raf/MEK/Erk pathways in a Gαi protein (PTX-sensitive)-dependent manner.

[1] = cited from earlier work
phosphorylation of Akt = assay: SDF-1-stimulated phosphorylation of Akt (western blot); assay type: cell-based, human; conditions: for concentration blocking Akt activation: 100 ng/ml SDF-1 for 30 minutes; for blocking of SDF-1-stimulated Akt phosphorylation (dose-dependent): MDA-MB-231 cells, 100 ng/ml SDF-1 for 30 min
From the text: FIG. 2 is an image of a western blot showing phosphorylation of Akt.
FIG. 10 is a graph and representative blot of matrigel invasion and Akt phosphorylation in cells.
as §1

Erk1/2 phosphorylation = assay: SDF-1-stimulated Erk1/2 phosphorylation; assay type: cell-based, human; conditions: data not shown
From the text: as §1

CXCR4 = CXCR4 (Homo sapiens, UniProt P61073); assay: Competition assay using biotin-labeled TN14003 and streptavidin-conjugated rhodamine on tumor cells; assay type: binding; conditions: cells pre-incubated with different concentrations
Description: FIG. 8 is images of fluorescens micrographs of stained cells. Biotin-labeled TN14003 was used to detect CXCR4 protein from the cells pre-incubated with various concentrations of WZZL811S.
Using biotin-labeled TN14003 along with streptavidin-conjugated rhodamine allowed a determination of the binding efficiency of these chemicals to the SDF-1 binding site of CXCR4 on tumor cells and compared it to AMD3100-SDF-1 interactions (FIG. 7). […] Cells were pre-incubated with different concentrations of AMD3100. […] Therefore, one of these compounds, WZZL811S, was selected to study its therapeutic potential based on potency and low toxicity to cells (FIG. 9).

[2] = system: human umbilical vein endothelial cells (HUVECs); assay: Endothelial capillary tube formation assay; assay type: cell-based; conditions: 100 nM, SDF-1 100 ng/ml, 18 hours
Description: The anti-angiogenic effect of test compounds was measured by analyzing endothelial cell growth and tube formation. The angiogenic effect of SDF-1 (100 ng/ml) on capillary formation by human umbilical vein endothelial cells (HUVECs) was examined in vitro using Matrigel-coated 24-well plates precoated with Matrigel and incubated for 18 hours. The angiogenic effect of SDF-1 was inhibited by either 100 nM TN14003 (peptide-based CXCR4 antagonist) or WZZL811S treatment (FIG. 14a, graph FIG. 14b).

SHIV = SHIV infection, p27 antigen capture; assay type: cell-based; conditions: 0.1, 1, 10 or 100 nM drug prior to infection; 2 to 5 days
Description: The effect of the test compounds on HIV infection in model cells was analyzed by p27 antigen capture using SHIV infected cells. Cells were incubated with 0, 0.1, 1, 10 or 100 nM drug prior to infection with SHIV. Viral titer was measured after infection by analyzing levels of p27 antigen. […] The inhibition was measurable at 2 days, and continued to 5 day incubations.

metastatic 686LN cells = assay: Head & Neck cancer metastasis model, 686LN cells injected through the tail vein, FDG-PET; assay type: in vivo, mice; conditions: 20 mg/mouse/twice weekly, thirty days
Description: The metastatic 686LN cells were injected intravenously through the tail vein to generate experimental animal models for Head & Neck cancer metastasis, modulated via CXCR4. […] These 3-D projection images show lung metastases well (bone mets and liver mets were apparent in axial section images of mice in control groups, data not shown).

MDA-MB-231 cells = assay: Cell viability of MDA-MB-231 cells; assay type: cell-based, human; conditions: even at 100 μM (the highest concentration tested)
[3] = system: CXCR4/SDF-1 mediated invasion of MDA-MB-231; assay: Matrigel invasion assay, CXCR4/SDF-1-mediated invasion; assay type: cell-based, human; conditions: MDA-MB-231, 2 nM
Description: FIG. 10 is a graph and representative blot of matrigel invasion and Akt phosphorylation in cells. A: Inhibition of CXCR4/SDF-1 mediated invasion of MDA-MB-231 in vitro by WZZL811S. CXCR4/SDF-1 mediated invasion of MDA-MB-231 was blocked either by 2 nM of TN14003 or WZZL811S. B: Incubating MDA-MB-231 cells with 100 ng/ml of SDF-1 for 30 min stimulated phosphorylation of Akt that blocked by WZZL811S in a dose-dependent manner
Lowering CXCR4 mRNA levels by siRNAs inhibited CXCR4/SDF-1-mediated invasion as measured by a matrigel invasion assay. The CXCR4 ligand, SDF-1 (400 ng/ml) was added to the lower chamber to attract CXCR4-positive breast cancer cells to migrate through the matrigel. The invasion of MDA-MB-231 cells transfected with siRNA1 decreased to 39±4% of the control cells, 51±8% with siRNA2, and only 16±6% with both siRNA1+2 (FIG. 3A).
WZZL811S was tested in a matrigel invasion assay to determine whether it can inhibit CXCR4/SDF-1-mediated invasion.

MT-4 cells = conditions: cited from earlier work
HIV = conditions: MT-4 cells; read-out: concentration required for 50% protection of HIV-induced cytopathogenicity; cited from earlier work

Sequence of CXCR4 (P61073 whole entry): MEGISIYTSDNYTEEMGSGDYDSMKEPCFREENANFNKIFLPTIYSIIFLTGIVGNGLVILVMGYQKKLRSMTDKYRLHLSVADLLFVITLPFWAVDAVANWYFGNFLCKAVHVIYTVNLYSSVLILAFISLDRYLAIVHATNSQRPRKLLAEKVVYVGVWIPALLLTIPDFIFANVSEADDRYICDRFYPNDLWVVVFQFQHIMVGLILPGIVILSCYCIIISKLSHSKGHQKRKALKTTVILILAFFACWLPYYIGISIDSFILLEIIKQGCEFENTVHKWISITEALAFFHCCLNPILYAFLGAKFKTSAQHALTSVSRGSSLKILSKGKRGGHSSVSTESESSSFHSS

| Compound | effect on CXCR4 protein levels (CXCR4 protein levels) | side effect in clinical study [1] | concentration blocking Akt activation (phosphorylation of Akt) | blocking of SDF-1-stimulated Akt phosphorylation (dose-dependent) (phosphorylation of Akt) | concentration attenuating Erk1/2 phosphorylation (Erk1/2 phosphorylation) | concentration needed to compete against biotin-labeled TN14003 (CXCR4) | inhibition of the angiogenic effect of SDF-1 (tube formation) [2] | inhibition of SHIV infection (p27 antigen) (SHIV) | efficacy relative to TN14003 (metastatic 686LN cells) | effect on cell viability (MDA-MB-231 cells) | blocking of SDF-1-induced matrigel invasion [3] | metastasis of 686LN cells to organs (metastatic 686LN cells) | concentration leading to 50% toxicity (MT-4 cells) | EC50 (HIV) |
| --- | --- | --- | --- | --- | --- | --- | --- | --- | --- | --- | --- | --- | --- | --- |
| C1=CC(CN2CCCNCCNCCCNCC2)CC=C1CN1CCCNCCNCCCNCC1 (stereo not drawn) [AMD3100] | did not affect | cardiac-related side effect | a few nano molar | blocked | 100 nM | 10 µM | – | – | – | – | – | – | – | – |
| c1ccc(NCc2ccc(CNc3ccccn3)cc2)nc1 [WZZL811S] | – | – | – | blocked | – | – | inhibited | inhibited SHIV infection at all concentrations tested | 80% | did not decrease cell viability | blocked; also recorded: as potent as TN14003 | – | – | – |
| TN14003 | did not affect | – | sub-nano molar | blocked | sub-nano molar | – | inhibited | – | – | – | blocked | failed to metastasize to any organs | 410 µM | 0.6 nM |
